Test results taken from the NIST ThermoML archive (doi:10.1021/je800530u).
Numbers after ± are expanded uncertainties.

Details: Liquid, Closed cell (Static) method

With `NCCO` [2-aminoethan-1-ol] the “vapor or sublimation pressure” value (283.15 K) was 0.0158 ± 0.0019 kPa, the “vapor or sublimation pressure” value (283.34 K) was 0.016 ± 0.0017 kPa and the “vapor or sublimation pressure” value (288.34 K) was 0.02533 ± 0.0026 kPa. For the same molecule, the “vapor or sublimation pressure” value (293.15 K) was 0.0382 ± 0.0042 kPa, the “vapor or sublimation pressure” value (293.34 K) was 0.03866 ± 0.004 kPa and the “vapor or sublimation pressure” value (298.34 K) was 0.05866 ± 0.006 kPa. The “vapor or sublimation pressure” value (303.15 K) was 0.0867 ± 0.0092 kPa, the “vapor or sublimation pressure” value (303.34 K) was 0.08799 ± 0.0089 kPa and the “vapor or sublimation pressure” value (308.34 K) was 0.1293 ± 0.013 kPa. For the same molecule, the “vapor or sublimation pressure” value (313.15 K) was 0.1855 ± 0.019 kPa, the “vapor or sublimation pressure” value (313.34 K) was 0.188 ± 0.019 kPa and the “vapor or sublimation pressure” value (318.34 K) was 0.2693 ± 0.0046 kPa. For the same molecule, the “vapor or sublimation pressure” value (323.15 K) was 0.3762 ± 0.0081 kPa, the “vapor or sublimation pressure” value (323.34 K) was 0.3813 ± 0.0063 kPa and the “vapor or sublimation pressure” value (328.34 K) was 0.5333 ± 0.0086 kPa. For the same molecule, the “vapor or sublimation pressure” value (333.15 K) was 0.7274 ± 0.014 kPa, the “vapor or sublimation pressure” value (333.34 K) was 0.7359 ± 0.012 kPa and the “vapor or sublimation pressure” value (338.34 K) was 1.007 ± 0.016 kPa. For the same molecule, the “vapor or sublimation pressure” value (343.15 K) was 1.347 ± 0.02 kPa, the “vapor or sublimation pressure” value (343.34 K) was 1.363 ± 0.021 kPa and the “vapor or sublimation pressure” value (348.34 K) was 1.827 ± 0.027 kPa. For the same molecule, the “vapor or sublimation pressure” value (353.15 K) was 2.4 ± 0.024 kPa, the “vapor or sublimation pressure” value (353.34 K) was 2.425 ± 0.035 kPa and the “vapor or sublimation pressure” value (358.34 K) was 3.193 ± 0.045 kPa. The “vapor or sublimation pressure” value (363.09 K) was 4.113 ± 0.057 kPa and the “vapor or sublimation pressure” value (363.15 K) was 4.126 ± 0.032 kPa.

For `CN1CCOCC1` [N-methylmorpholine], the “vapor or sublimation pressure” value (273.18 K) was 0.6893 ± 0.0091 kPa, the “vapor or sublimation pressure” value (278.18 K) was 0.9533 ± 0.012 kPa and the “vapor or sublimation pressure” value (283.18 K) was 1.3 ± 0.012 kPa. The “vapor or sublimation pressure” value (288.18 K) was 1.748 ± 0.012 kPa, the “vapor or sublimation pressure” value (293.18 K) was 2.322 ± 0.014 kPa and the “vapor or sublimation pressure” value (298.18 K) was 3.049 ± 0.017 kPa. For the same molecule, the “vapor or sublimation pressure” value (303.18 K) was 3.96 ± 0.021 kPa, the “vapor or sublimation pressure” value (308.18 K) was 5.09 ± 0.026 kPa and the “vapor or sublimation pressure” value (313.15 K) was 6.471 ± 0.046 kPa. The “vapor or sublimation pressure” value (313.18 K) was 6.479 ± 0.032 kPa, the “vapor or sublimation pressure” value (318.18 K) was 8.174 ± 0.039 kPa and the “vapor or sublimation pressure” value (323.15 K) was 10.21 ± 0.065 kPa. For the same molecule, the “vapor or sublimation pressure” value (323.18 K) was 10.22 ± 0.048 kPa, the “vapor or sublimation pressure” value (328.18 K) was 12.68 ± 0.059 kPa and the “vapor or sublimation pressure” value (333.15 K) was 15.58 ± 0.094 kPa. For the same molecule, the “vapor or sublimation pressure” value (333.18 K) was 15.6 ± 0.072 kPa, the “vapor or sublimation pressure” value (338.18 K) was 19.06 ± 0.087 kPa and the “vapor or sublimation pressure” value (343.15 K) was 23.1 ± 0.14 kPa. For the same molecule, the “vapor or sublimation pressure” value (343.18 K) was 23.13 ± 0.1 kPa, the “vapor or sublimation pressure” value (348.18 K) was 27.88 ± 0.13 kPa and the “vapor or sublimation pressure” value (353.08 K) was 33.27 ± 0.15 kPa. For the same molecule, the “vapor or sublimation pressure” value (353.15 K) was 33.35 ± 0.19 kPa and the “vapor or sublimation pressure” value (363.15 K) was 47.02 ± 0.26 kPa.

With `O` [water] the “vapor or sublimation pressure” value (282.87 K) was 1.177 ± 0.011 kPa, the “vapor or sublimation pressure” value (283.15 K) was 1.2 ± 0.021 kPa and the “vapor or sublimation pressure” value (287.87 K) was 1.636 ± 0.012 kPa. The “vapor or sublimation pressure” value (292.87 K) was 2.244 ± 0.014 kPa, the “vapor or sublimation pressure” value (293.15 K) was 2.284 ± 0.023 kPa and the “vapor or sublimation pressure” value (297.87 K) was 3.044 ± 0.017 kPa. For the same molecule, the “vapor or sublimation pressure” value (302.87 K) was 4.081 ± 0.021 kPa, the “vapor or sublimation pressure” value (303.15 K) was 4.148 ± 0.031 kPa and the “vapor or sublimation pressure” value (307.87 K) was 5.416 ± 0.027 kPa. For the same molecule, the “vapor or sublimation pressure” value (312.87 K) was 7.114 ± 0.034 kPa, the “vapor or sublimation pressure” value (313.15 K) was 7.222 ± 0.046 kPa and the “vapor or sublimation pressure” value (317.87 K) was 9.258 ± 0.043 kPa. For the same molecule, the “vapor or sublimation pressure” value (322.87 K) was 11.94 ± 0.055 kPa, the “vapor or sublimation pressure” value (323.15 K) was 12.11 ± 0.07 kPa and the “vapor or sublimation pressure” value (327.87 K) was 15.27 ± 0.069 kPa. The “vapor or sublimation pressure” value (332.87 K) was 19.36 ± 0.087 kPa, the “vapor or sublimation pressure” value (333.15 K) was 19.62 ± 0.11 kPa and the “vapor or sublimation pressure” value (337.87 K) was 24.37 ± 0.11 kPa. The “vapor or sublimation pressure” value (342.87 K) was 30.44 ± 0.13 kPa, the “vapor or sublimation pressure” value (343.15 K) was 30.82 ± 0.16 kPa and the “vapor or sublimation pressure” value (347.87 K) was 37.76 ± 0.17 kPa. The “vapor or sublimation pressure” value (352.87 K) was 46.53 ± 0.2 kPa, the “vapor or sublimation pressure” value (353.15 K) was 47.07 ± 0.24 kPa and the “vapor or sublimation pressure” value (357.87 K) was 56.98 ± 0.25 kPa. The “vapor or sublimation pressure” value (362.87 K) was 69.35 ± 0.3 kPa, the “vapor or sublimation pressure” value (363.15 K) was 70.1 ± 0.36 kPa and the “vapor or sublimation pressure” value (363.8 K) was 71.88 ± 0.31 kPa.
